Test results reported in patent US10442791B2, “DNA-PK inhibitors” (Vertex Pharmaceuticals Incorporated, priority 2012, dated 2019).

Legend:
A549 = experiment: Cell viability following irradiation (CellTiter-Glo), A549; type: cell-based; conditions: A549 (Lung Cancer), viability at 6 days
Method: (§1) To evaluate the radiosensitizing effects of compounds of the invention in combination with ionizing radiation (IR), a broad panel of cell lines across multiple tumor types and genetic backgrounds were tested. Cells were incubated with DMSO or compound 578 for 30 minutes and then exposed to various doses of radiation (0, 0.5, 1, 2, 4, 6, 8, and 16 Gy). Cell viability was assessed at 6 days using CellTiter-Glo® (Promega, Inc).

A172 = experiment: Cell viability following irradiation (CellTiter-Glo), A172; type: cell-based; conditions: A172 (Glioblastoma), viability at 6 days
Method: as §1

FaDu = experiment: Cell viability following irradiation (CellTiter-Glo), FaDu; type: cell-based; conditions: FaDu (Head and Neck Squamous Cell Carcinoma), viability at 6 days
Method: as §1

DBTRG-05MG = experiment: Cell viability following irradiation (CellTiter-Glo), DBTRG-05MG; type: cell-based; conditions: DBTRG-05MG (Glioblastoma), viability at 6 days
Method: as §1

H460 = experiment: Cell viability following irradiation (CellTiter-Glo), H460; type: cell-based; conditions: H460 (Lung Cancer), viability at 6 days
Method: as §1

Miapaca2 = experiment: Cell viability following irradiation (CellTiter-Glo), Miapaca2; type: cell-based; conditions: Miapaca2 (Pancreatic cancer), viability at 6 days
Method: as §1

SK-MEL-5 = experiment: Cell viability following irradiation (CellTiter-Glo), SK-MEL-5; type: cell-based; conditions: SK-MEL-5 (Melanoma), viability at 6 days
Method: as §1

DLD-1 = experiment: Cell viability following irradiation (CellTiter-Glo), DLD-1; type: cell-based; conditions: DLD-1 (Colorectal Cancer), viability at 6 days
Method: as §1

HCT116 = experiment: Cell viability following irradiation (CellTiter-Glo), HCT116; type: cell-based; conditions: HCT116 (Colorectal Cancer), viability at 6 days
Method: as §1

U87MG = experiment: Cell viability following irradiation (CellTiter-Glo), U87MG; type: cell-based; conditions: U87MG (Glioblastoma), viability at 6 days
Method: as §1

OE19 = experiment: Cell viability following irradiation (CellTiter-Glo), OE19; type: cell-based; conditions: OE19 (Gastric-Esophageal Cancer), viability at 6 days
Method: as §1

H2009 = experiment: Cell viability following irradiation (CellTiter-Glo), H2009; type: cell-based; conditions: H2009 (Lung Cancer), viability at 6 days
Method: as §1

MCF7 = experiment: Cell viability following irradiation (CellTiter-Glo), MCF7; type: cell-based; conditions: MCF7 (Breast Cancer), viability at 6 days
Method: as §1

SW900 = experiment: Cell viability following irradiation (CellTiter-Glo), SW900; type: cell-based; conditions: SW900 (Lung Cancer), viability at 6 days
Method: as §1

Huh7 = experiment: Cell viability following irradiation (CellTiter-Glo), Huh7; type: cell-based; conditions: Huh7 (Hepatocellular Carcinoma), viability at 6 days
Method: as §1

SMCC7721 = experiment: Cell viability following irradiation (CellTiter-Glo), SMCC7721; type: cell-based; conditions: SMCC7721 (Hepatocellular Carcinoma), viability at 6 days
Method: as §1

H838 = experiment: Cell viability following irradiation (CellTiter-Glo), H838; type: cell-based; conditions: H838 (Lung Cancer), viability at 6 days
Method: as §1

SNU449 = experiment: Cell viability following irradiation (CellTiter-Glo), SNU449; type: cell-based; conditions: SNU449 (Hepatocellular Carcinoma), viability at 6 days
Method: as §1

PC3 = experiment: Cell viability following irradiation (CellTiter-Glo), PC3; type: cell-based; conditions: PC3 (Prostate Cancer), viability at 6 days
Method: as §1

glioblastoma cell lines = experiment: Cell viability following irradiation, glioblastoma cell lines; type: cell-based; conditions: generally less sensitive to radiation alone
Method: as §1

[1] = system: OD26749 NSCLC subcutaneous xenograft; experiment: In vivo efficacy, primary OD26749 NSCLC subcutaneous xenograft model with whole body IR; design: species or system Nude mice; conditions: Days 19 and 26, Day 30 post implantation
Method: The efficacy of compound 578 in vivo was evaluated in the primary OD26749 NSCLC subcutaneous xenograft model. This primary NSCLC tumor was obtained from a patient with a poorly differentiated adenocarcinoma and was serially passaged in SCID mice prior to this study. Nude mice were surgically implanted with 150-mg fragments of OD26749 tumor at passage 3 (P3). Whole body ionizing radiation (IR, 2 Gy/treatment) was administered using a dual Cesium 137 source and initiated when tumors reached approximately 350 mm^3. Tumor volumes were measured twice a week during the course of the study. Anti-tumor efficacy is expressed as % T/C (tumor/control) while regression is expressed as % T/Ti, the reduction in tumor volume compared to the starting tumor volume.
Compound 578 [in 16% Captisol®+HPMC/PVP] was administered orally (b.i.d. at 0 and 4 hours) at 25, 50, 100 mg/kg and (q.d.) 200 mg/kg on Day 19 post implantation. A single 2-Gy dose of whole body IR was given 15 minutes after compound administration. Control animals were given vehicle orally b.i.d. (0 and 4 hours). On Day 26 post implantation, the same regimens were repeated.

PATU8889T = experiment: Cell viability following irradiation (CellTiter-Glo), PATU8889T; type: cell-based; conditions: PATU8889T (Pancreatic cancer), viability at 6 days
Method: as §1

- EC50 IR (A549; compound 578 0.7 μM + IR): 0.5 Gy
- EC50 IR (A549; compound 578 2.1 μM + IR): <0.5 Gy
- EC50 IR (H460; compound 578 0.7 μM + IR): 0.9 Gy
- EC50 IR (H460; compound 578 2.1 μM + IR): 0.7 Gy
- EC50 IR (Miapaca2; compound 578 0.7 μM + IR): 2.4 Gy
- EC50 IR (Miapaca2; compound 578 2.1 μM + IR): 1.9 Gy
- EC50 IR (SK-MEL-5; compound 578 0.7 μM + IR): 2.7 Gy
- EC50 IR (SK-MEL-5; compound 578 2.1 μM + IR): 2.3 Gy
- EC50 IR (DLD-1; compound 578 0.7 μM + IR): 0.6 Gy
- EC50 IR (DLD-1; compound 578 2.1 μM + IR): 0.7 Gy
- EC50 IR (HCT116; compound 578 0.7 μM + IR): 0.5 Gy
- EC50 IR (HCT116; compound 578 2.1 μM + IR): <0.5 Gy
- EC50 IR (U87MG; compound 578 0.7 μM + IR): >16 Gy
- EC50 IR (U87MG; compound 578 2.1 μM + IR): >16 Gy
- EC50 IR (H2009; compound 578 0.7 μM + IR): 2.7 Gy
- EC50 IR (H2009; compound 578 2.1 μM + IR): 1.5 Gy
- EC50 IR (MCF7; compound 578 0.7 μM + IR): 4.9 Gy
- EC50 IR (MCF7; compound 578 2.1 μM + IR): 3.3 Gy
- EC50 IR (SW900; compound 578 0.7 μM + IR): 4.2 Gy
- EC50 IR (SW900; compound 578 2.1 μM + IR): 4.3 Gy
- EC50 IR (Huh7; compound 578 0.7 μM + IR): 1.3 Gy
- EC50 IR (Huh7; compound 578 2.1 μM + IR): 0.8 Gy
- EC50 IR (H838; compound 578 0.7 μM + IR): 0.6 Gy
- EC50 IR (H838; compound 578 2.1 μM + IR): <0.5 Gy
- EC50 IR (SNU449; compound 578 0.7 μM + IR): 3.3 Gy
- EC50 IR (SNU449; compound 578 2.1 μM + IR): 1.8 Gy
- EC50 IR (PC3; compound 578 0.7 μM + IR): 0.5 Gy
- EC50 IR (PC3; compound 578 2.1 μM + IR): <0.5 Gy
SMILES: CNC(=O)c1ccnc2c([C@H](C)CNc3cc(-c4cnc(C)nc4)ncn3)cccc12 [Compound 578, (S)—N-methyl-8-(1-((2′-methyl-[4,5′-bipyrimidin]-6-yl)amino)propan-2-yl)quinoline-4-carboxamide]
- EC50 IR (A172; compound 578 0.7 μM + IR): 1.7 Gy
- EC50 IR (A172; compound 578 2.1 μM + IR): 0.9 Gy
- EC50 IR (FaDu; compound 578 0.7 μM + IR): 2 Gy
- EC50 IR (FaDu; compound 578 2.1 μM + IR): 1.9 Gy
- EC50 IR (DBTRG-05MG; compound 578 0.7 μM + IR): 4.2 Gy
- EC50 IR (DBTRG-05MG; compound 578 2.1 μM + IR): 5 Gy
- EC50 IR (OE19; compound 578 0.7 μM + IR): 0.5 Gy
- EC50 IR (OE19; compound 578 2.1 μM + IR): <0.5 Gy
- EC50 IR (SMCC7721; compound 578 0.7 μM + IR): 1.7 Gy
- EC50 IR (SMCC7721; compound 578 2.1 μM + IR): 0.6 Gy
- radiosensitization (glioblastoma cell lines): less radiosensitization
- % T/C (tumor growth inhibition) ([1]; 25 mg/kg b.i.d. oral + 2 Gy whole body IR): 25.6%
- % T/C (tumor growth inhibition) ([1]; 50 mg/kg b.i.d. oral + 2 Gy whole body IR): 11.7%
- % T/Ti (regression) ([1]; 100 mg/kg b.i.d. oral + 2 Gy whole body IR, P<0.001 compared to IR alone): −3.1%
- % T/C (tumor growth inhibition) ([1]; 200 mg/kg q.d. oral + 2 Gy whole body IR): 6.5%
- EC50 IR (PATU8889T; compound 578 0.7 μM + IR): 1.1 Gy
- EC50 IR (PATU8889T; compound 578 2.1 μM + IR): 0.9 Gy
